Assay results as given in ChEMBL document CHEMBL1201862, “PubChem BioAssay data set” (2004).
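Exposure lasted 48 hours, with cells grown in 96-well plates and compounds tested at five concentrations. At the GI50, growth is halved.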 The source made the active and inactive calls. Cut-off read from the data, not from the text of the source: active = GI50 up to about 1.1 µM and inactive = higher.

What was measured:
Assay in all cases: NCI tumour cell line growth inhibition, 48 h
KM12 = test system: KM12
SN12C = test system: SN12C
CCRF-CEM = test system: CCRF-CEM
NCI-H522 = test system: NCI-H522
HOP-92 = test system: HOP-92
OVCAR-4 = test system: OVCAR-4
SF-268 = test system: SF-268
LOX IMVI = test system: LOX IMVI
COLO 205 = test system: COLO 205
A549 = test system: A549
SF-539 = test system: SF-539
SK-OV-3 = test system: SK-OV-3
MCF7 = test system: MCF7
Malme-3M = test system: Malme-3M
MOLT-4 = test system: MOLT-4
U-251 = test system: U-251
MDA-MB-435 = test system: MDA-MB-435
OVCAR-5 = test system: OVCAR-5
NCI-H226 = test system: NCI-H226
BT-549 = test system: BT-549
NCI-H23 = test system: NCI-H23
MDA-N = test system: MDA-N
NCI-H460 = test system: NCI-H460
HT-29 = test system: HT-29
NCI/ADR-RES = test system: NCI/ADR-RES
DU-145 = test system: DU-145
HCT-116 = test system: HCT-116
SNB-75 = test system: SNB-75
OVCAR-8 = test system: OVCAR-8
EKVX = test system: EKVX
UO-31 = test system: UO-31
ACHN = test system: ACHN
OVCAR-3 = test system: OVCAR-3
M14 = test system: M14
T47D = test system: T47D
SW-620 = test system: SW-620
A498 = test system: A498
SF-295 = test system: SF-295
SR = test system: SR
SK-MEL-5 = test system: SK-MEL-5
786-0 = test system: 786-0
SNB-19 = test system: SNB-19
UACC-62 = test system: UACC-62
SK-MEL-28 = test system: SK-MEL-28
HCT-15 = test system: HCT-15
CAKI-1 = test system: CAKI-1
UACC-257 = test system: UACC-257
SK-MEL-2 = test system: SK-MEL-2
RXF 393 = test system: RXF 393
IGROV-1 = test system: IGROV-1
Hs-578T = test system: Hs-578T
PC-3 = test system: PC-3
HOP-62 = test system: HOP-62
TK-10 = test system: TK-10
HL-60 = test system: HL-60
RPMI-8226 = test system: RPMI-8226
K562 = test system: K562
MDA-MB-231 = test system: MDA-MB-231
HCC 2998 = test system: HCC 2998

For `COc1cc(Oc2nc3cc(F)c(F)cc3nc2-c2ccccc2)cc(OC)c1OC`, the GI50 (KM12) was 35 µM (inactive), the GI50 (SN12C) was > 100 µM (inactive) and the GI50 (CCRF-CEM) was > 100 µM (inactive). For the same compound, the GI50 (NCI-H522) was 13.9 µM (inactive), the GI50 (HOP-92) was > 100 µM (inactive) and the GI50 (OVCAR-4) was 79.3 µM (inactive). For the same compound, the GI50 (SF-268) was 59 µM (inactive), the GI50 (LOX IMVI) was 81.8 µM (inactive) and the GI50 (COLO 205) was > 100 µM (inactive). The GI50 (A549) was > 100 µM (inactive), the GI50 (SF-539) was 26.8 µM (inactive) and the GI50 (SK-OV-3) was > 100 µM (inactive). For the same compound, the GI50 (MCF7) was 29.5 µM (inactive), the GI50 (Malme-3M) was 32 µM (inactive) and the GI50 (MOLT-4) was > 100 µM (inactive). The GI50 (U-251) was 40.3 µM (inactive), the GI50 (MDA-MB-435) was 61.9 µM (inactive) and the GI50 (OVCAR-5) was > 100 µM (inactive). The GI50 (NCI-H226) was 45.5 µM (inactive), the GI50 (BT-549) was > 100 µM (inactive) and the GI50 (NCI-H23) was > 100 µM (inactive). For the same compound, the GI50 (MDA-N) was > 100 µM (inactive), the GI50 (NCI-H460) was 63.8 µM (inactive) and the GI50 (HT-29) was 89.3 µM (inactive). The GI50 (NCI/ADR-RES) was > 100 µM (inactive), the GI50 (DU-145) was > 100 µM (inactive) and the GI50 (HCT-116) was > 100 µM (inactive). For the same compound, the GI50 (SNB-75) was 20.4 µM (inactive), the GI50 (OVCAR-8) was > 100 µM (inactive) and the GI50 (EKVX) was 97.7 µM (inactive). For the same compound, the GI50 (UO-31) was 73.6 µM (inactive), the GI50 (ACHN) was 43.5 µM (inactive) and the GI50 (OVCAR-3) was > 100 µM (inactive). The GI50 (M14) was 45.3 µM (inactive), the GI50 (T47D) was > 100 µM (inactive) and the GI50 (SW-620) was > 100 µM (inactive). For the same compound, the GI50 (A498) was > 100 µM (inactive), the GI50 (SF-295) was 46.3 µM (inactive) and the GI50 (SR) was 78.9 µM (inactive). The GI50 (SK-MEL-5) was 28.1 µM (inactive), the GI50 (786-0) was 30.5 µM (inactive) and the GI50 (SNB-19) was 34.2 µM (inactive). For the same compound, the GI50 (UACC-62) was 25.8 µM (inactive), the GI50 (SK-MEL-28) was > 100 µM (inactive) and the GI50 (HCT-15) was 51.9 µM. For the same compound, the GI50 (CAKI-1) was 46 µM (inactive), the GI50 (UACC-257) was > 100 µM (inactive) and the GI50 (SK-MEL-2) was > 100 µM (inactive). For the same compound, the GI50 (RXF 393) was > 100 µM (inactive), the GI50 (IGROV-1) was > 100 µM (inactive) and the GI50 (Hs-578T) was 38.7 µM (inactive). The GI50 (PC-3) was 40.3 µM (inactive), the GI50 (HOP-62) was 82 µM (inactive) and the GI50 (TK-10) was 68.2 µM (inactive). For the same compound, the GI50 (HL-60) was > 100 µM (inactive).

`Cc1nc(-c2cc3cc([N+](=O)[O-])ccc3oc2=O)cs1` was tested, and the GI50 (KM12) was > 100 µM (inactive), the GI50 (SN12C) was > 100 µM (inactive) and the GI50 (CCRF-CEM) was 32.9 µM (inactive). The GI50 (HOP-92) was 67.3 µM (inactive), the GI50 (OVCAR-4) was > 100 µM (inactive) and the GI50 (SF-268) was > 100 µM (inactive). The GI50 (LOX IMVI) was > 100 µM (inactive), the GI50 (COLO 205) was > 100 µM (inactive) and the GI50 (A549) was > 100 µM (inactive). For the same compound, the GI50 (SF-539) was > 100 µM (inactive), the GI50 (SK-OV-3) was > 100 µM (inactive) and the GI50 (MCF7) was > 100 µM (inactive). The GI50 (MOLT-4) was > 100 µM (inactive), the GI50 (U-251) was > 100 µM (inactive) and the GI50 (MDA-MB-435) was > 100 µM (inactive). For the same compound, the GI50 (OVCAR-5) was > 100 µM (inactive), the GI50 (RPMI-8226) was > 100 µM (inactive) and the GI50 (NCI-H226) was > 100 µM (inactive). For the same compound, the GI50 (BT-549) was > 100 µM (inactive), the GI50 (MDA-N) was > 100 µM (inactive) and the GI50 (NCI-H460) was > 100 µM (inactive). The GI50 (HT-29) was > 100 µM (inactive), the GI50 (DU-145) was > 100 µM (inactive) and the GI50 (HCT-116) was > 100 µM (inactive). The GI50 (SNB-75) was 1.25 µM (inactive), the GI50 (EKVX) was > 100 µM (inactive) and the GI50 (UO-31) was > 100 µM (inactive). The GI50 (ACHN) was > 100 µM (inactive), the GI50 (K562) was 71.8 µM (inactive) and the GI50 (MDA-MB-231) was 80.7 µM (inactive). For the same compound, the GI50 (M14) was > 100 µM (inactive), the GI50 (T47D) was > 100 µM (inactive) and the GI50 (SW-620) was > 100 µM (inactive). For the same compound, the GI50 (SF-295) was > 100 µM (inactive), the GI50 (SR) was 71.3 µM (inactive) and the GI50 (SK-MEL-5) was > 100 µM (inactive). For the same compound, the GI50 (786-0) was > 100 µM (inactive), the GI50 (SNB-19) was > 100 µM (inactive) and the GI50 (HCC 2998) was > 100 µM (inactive). The GI50 (UACC-62) was > 100 µM (inactive), the GI50 (SK-MEL-28) was > 100 µM (inactive) and the GI50 (HCT-15) was greater than 100 µM. The GI50 (CAKI-1) was > 100 µM (inactive), the GI50 (UACC-257) was > 100 µM (inactive) and the GI50 (SK-MEL-2) was > 100 µM (inactive). The GI50 (RXF 393) was > 100 µM (inactive), the GI50 (IGROV-1) was > 100 µM (inactive) and the GI50 (Hs-578T) was > 100 µM (inactive). For the same compound, the GI50 (PC-3) was > 100 µM (inactive), the GI50 (HOP-62) was > 100 µM (inactive) and the GI50 (TK-10) was > 100 µM (inactive). For the same compound, the GI50 (HL-60) was 31.8 µM (inactive).

For `COc1cc(C2(O)c3ccccc3C3=NCCN32)cc(OC)c1OC` (stereo unspecified), the GI50 (KM12) was > 100 µM (inactive), the GI50 (SN12C) was > 100 µM (inactive) and the GI50 (CCRF-CEM) was > 100 µM (inactive). The GI50 (HOP-92) was > 100 µM (inactive), the GI50 (OVCAR-4) was > 100 µM (inactive) and the GI50 (SF-268) was > 100 µM (inactive). For the same compound, the GI50 (LOX IMVI) was > 100 µM (inactive), the GI50 (COLO 205) was > 100 µM (inactive) and the GI50 (A549) was > 100 µM (inactive). For the same compound, the GI50 (SK-OV-3) was > 100 µM (inactive), the GI50 (MOLT-4) was 30.3 µM (inactive) and the GI50 (U-251) was > 100 µM (inactive). For the same compound, the GI50 (MDA-MB-435) was > 100 µM (inactive), the GI50 (RPMI-8226) was > 100 µM (inactive) and the GI50 (NCI-H226) was 73.3 µM (inactive). For the same compound, the GI50 (BT-549) was > 100 µM (inactive), the GI50 (NCI-H23) was > 100 µM (inactive) and the GI50 (MDA-N) was > 100 µM (inactive). For the same compound, the GI50 (NCI-H460) was > 100 µM (inactive), the GI50 (HT-29) was > 100 µM (inactive) and the GI50 (NCI/ADR-RES) was > 100 µM (inactive). For the same compound, the GI50 (DU-145) was > 100 µM (inactive), the GI50 (HCT-116) was > 100 µM (inactive) and the GI50 (SNB-75) was > 100 µM (inactive). For the same compound, the GI50 (UO-31) was > 100 µM (inactive), the GI50 (ACHN) was > 100 µM (inactive) and the GI50 (K562) was > 100 µM (inactive). For the same compound, the GI50 (OVCAR-3) was > 100 µM (inactive), the GI50 (MDA-MB-231) was > 100 µM (inactive) and the GI50 (T47D) was > 100 µM (inactive). The GI50 (SW-620) was > 100 µM (inactive), the GI50 (A498) was > 100 µM (inactive) and the GI50 (SF-295) was > 100 µM (inactive). The GI50 (SR) was 64.3 µM (inactive), the GI50 (SK-MEL-5) was > 100 µM (inactive) and the GI50 (786-0) was > 100 µM (inactive). For the same compound, the GI50 (SNB-19) was 79.4 µM (inactive), the GI50 (HCC 2998) was > 100 µM (inactive) and the GI50 (UACC-62) was > 100 µM (inactive). For the same compound, the GI50 (SK-MEL-28) was > 100 µM (inactive), the GI50 (HCT-15) was greater than 100 µM and the GI50 (CAKI-1) was > 100 µM (inactive). For the same compound, the GI50 (UACC-257) was > 100 µM (inactive), the GI50 (SK-MEL-2) was > 100 µM (inactive) and the GI50 (Hs-578T) was > 100 µM (inactive). The GI50 (PC-3) was > 100 µM (inactive), the GI50 (HOP-62) was > 100 µM (inactive) and the GI50 (TK-10) was > 100 µM (inactive). The GI50 (HL-60) was > 100 µM (inactive).
